The target in one assay is T1, mouse 11-β-HSD-1 (Mus musculus, UniProt P50172).
T1 construct: either as microsome fractions from rat and mice liver (2.5 μg); tissue TEBU; host or cells: mouse liver microsome fractions
Kind of assay: Inhibition of 11-β-HSD-1 enzyme assay (HTRF Cortisol), mice liver microsome fractions. It counts as biochemical. Particulars: for remaining activity at 1 µM: read-out: Inhibition of mouse 11-β-HSD-1 % of control at 1 μM. As to the method: (§1) Human recombinant 11-beta-hydroxysteroid dehydrogenase type 1 (11-β-HSD-1) enzyme was expressed in E. coli. Rat and mice liver microsome fractions were purchased from TEBU.
(§2) The 11-β-HSD-1 enzyme assay was carried out in 96 well microtiter plates in a total volume of 100 μl containing 30 mM Hepes buffer, pH 7.4 with 1 mM EDTA, substrate mixture cortisone/NADPH (200 nM/200 μM), G-6-P (1 mM) and inhibitors in serial dilutions. Reactions were initiated by addition of 10 μl 11-β-HSD-1 (3 μg) from E. coli, either as microsome fractions from rat and mice liver (2.5 μg). Following mixing, the plates were shaken for 150 minutes at 37° C. The reactions were terminated with 10 μl Acid-18beta Glycyrrhetinic stop solution. Determinations of Cortisol levels in 11-β-HSD-1 preparations were monitored by HTRF (HTRF Cortisol assay from Cis bio international).
(§3) Activity is expressed in % of control or concentration to inhibit 50% of the enzyme activity (IC50) (table 6).
In general terms: Time-resolved FRET reads energy transfer from a long-lived donor to a nearby acceptor.

For a further assay, the target named is T2, human 11-β-HSD-1 (Homo sapiens, UniProt P28845).
T2 construct: made in house; host or cells: E. coli
Kind of assay: Inhibition of 11-β-HSD-1 enzyme assay (HTRF Cortisol), human recombinant enzyme. It counts as biochemical. The settings on record: for IC50: human recombinant enzyme from E. coli, cortisone/NADPH 200 nM/200 μM. The protocol: as §1, §2, §3

In another assay the test system is humans. Particulars: cited from earlier work.
The subject of another assay is normal patients. Particulars: cited from earlier work.

T2 sequence (P28845 whole entry): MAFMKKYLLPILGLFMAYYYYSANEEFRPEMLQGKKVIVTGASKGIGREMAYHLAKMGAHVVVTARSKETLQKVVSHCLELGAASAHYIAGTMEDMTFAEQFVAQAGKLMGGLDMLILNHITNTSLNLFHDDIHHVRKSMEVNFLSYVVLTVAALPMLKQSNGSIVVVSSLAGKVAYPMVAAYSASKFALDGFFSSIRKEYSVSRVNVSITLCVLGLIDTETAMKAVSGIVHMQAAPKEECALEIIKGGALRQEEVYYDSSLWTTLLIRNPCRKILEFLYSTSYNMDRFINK
T1 sequence (P50172 whole entry): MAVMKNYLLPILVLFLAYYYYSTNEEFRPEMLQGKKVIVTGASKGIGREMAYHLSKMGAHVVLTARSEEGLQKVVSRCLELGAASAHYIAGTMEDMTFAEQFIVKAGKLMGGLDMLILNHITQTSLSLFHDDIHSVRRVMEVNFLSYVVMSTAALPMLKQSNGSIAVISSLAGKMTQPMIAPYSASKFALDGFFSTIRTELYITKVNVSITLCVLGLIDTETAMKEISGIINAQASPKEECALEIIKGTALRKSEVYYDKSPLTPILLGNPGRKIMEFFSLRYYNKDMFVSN

As for `O=C(c1csc(C2CCNCC2)n1)N(C1CCCCC1)C1CC1` [Compound 1.1, 2-Piperidin-4-yl-thiazole-4-carboxylic acid cyclohexyl-cyclopropyl-amide], the values for the IC50 at mouse 11-β-HSD-1 and at human 11-β-HSD-1 were 290 nM and 1200 nM, respectively.
In the case of `O=C(c1csc(C2CCNCC2)n1)N1CCCC2CCCCC21` (stereo not shown) [Compound 1.2, (Octahydro-quinolin-1-yl)-(2-piperidin-4-yl-thiazol-4-yl)-methanone], on human 11-β-HSD-1 (at 1 μM, human recombinant enzyme, read-out: Inhibition of human 11-β-HSD-1 % of control at 1 μM), the remaining activity at 1 µM was found to be 27%.
As to `CC(C)(C)CC(=O)N1CCC(c2nc(C(=O)N3CCCC4CCCCC43)cs2)CC1` (stereo not shown) [Compound 2.1, 3,3-Dimethyl-1-{4-[4-(octahydro-quinoline-1-carbonyl)-thiazol-2-yl]-piperidin-1-yl}-butan-1-one], on mouse 11-β-HSD-1, the remaining activity at 1 µM is 51%. For the same molecule, the IC50 at human 11-β-HSD-1 came to 92 nM.
For `O=C(CCC1CCCC1)N1CCC(c2nc(C(=O)N(C3CCCCC3)C3CC3)cs2)CC1` [Compound 2.7, 2-[1-(3-Cyclopentyl-propionyl)-piperidin-4-yl]-thiazole-4-carboxylic acid cyclohexyl-cyclopropyl-amide], the IC50 at mouse 11-β-HSD-1 stood at 630 nM; on human 11-β-HSD-1, 420 nM.
On the same counts, the results for `O=C(C1CCCCC1)N1CCC(c2nc(C(=O)N3CCCC4CCCCC43)cs2)CC1` (stereo not shown) [Compound 2.17, [2-(1-Cyclohexanecarbonyl-piperidin-4-yl)-thiazol-4-yl]-(octahydro-quinolin-1-yl)-methanone] are 340 nM and 200 nM.
For the molecule `O=C(C1CCCC1)N1CCC(c2nc(C(=O)N3CCCC4CCCCC43)cs2)CC1` (stereo not shown) [Compound 2.18, [2-(1-Cyclopentanecarbonyl-piperidin-4-yl)-thiazol-4-yl]-(octahydro-quinolin-1-yl)-methanone], the IC50 at mouse 11-β-HSD-1 was found to be 490 nM; at human 11-β-HSD-1, 130 nM.
Turning to `CCC(C)NC(=O)N1CCC(c2nc(C(=O)N3CCCC4CCCCC43)cs2)CC1` (stereo not shown) [Compound 3.1, 4-[4-(Octahydro-quinoline-1-carbonyl)-thiazol-2-yl]-piperidine-1-carboxylic acid sec-butylamide], the values for the IC50 against mouse 11-β-HSD-1 and at human 11-β-HSD-1 were 470 nM and 270 nM, respectively.
In the case of `CCCCCNC(=O)N1CCC(c2nc(C(=O)N3CCCC4CCCCC43)cs2)CC1` (stereo not shown) [Compound 3.7, 4-[4-(Octahydro-quinoline-1-carbonyl)-thiazol-2-yl]-piperidine-1-carboxylic acid pentylamide], the IC50 was found to be 59 nM against mouse 11-β-HSD-1 and 340 nM on human 11-β-HSD-1.
On the same counts, the results for `COc1ccc(CNC(=O)N2CCC(c3nc(C(=O)N4CCCC5CCCCC54)cs3)CC2)cc1` (stereo not shown) [Compound 3.22, 4-[4-(Octahydro-quinoline-1-carbonyl)-thiazol-2-yl]-piperidine-1-carboxylic acid 4-methoxy-benzylamide] are 500 nM and 53 nM.
On to `O=C(c1csc(C2CCN(S(=O)(=O)C(F)(F)F)CC2)n1)N1CCCC2CCCCC21` (stereo not shown) [Compound 4.1, (Octahydro-quinolin-1-yl)-[2-(1-trifluoromethanesulfonyl-piperidin-4-yl)-thiazol-4-yl]-methanone], for which the results for the IC50 against mouse 11-β-HSD-1 and on human 11-β-HSD-1 were 330 nM and 32 nM, respectively.
As for `CCCCS(=O)(=O)N1CCC(c2nc(C(=O)N3CCCC4CCCCC43)cs2)CC1` (stereo not shown) [Compound 4.2, {2-[1-(Butane-1-sulfonyl)-piperidin-4-yl]-thiazol-4-yl}-(octahydro-quinolin-1-yl)-methanone], the IC50 amounted to 210 nM against mouse 11-β-HSD-1 and 93 nM at human 11-β-HSD-1.
In the case of `O=C(c1csc(C2CCN(S(=O)(=O)c3cccs3)CC2)n1)N(C1CCCCC1)C1CC1` [Compound 4.11, 2-[1-(Thiophene-2-sulfonyl)-piperidin-4-yl]-thiazole-4-carboxylic acid cyclohexyl-cyclopropyl-amide], the IC50 on human 11-β-HSD-1 is 720 nM.
For the molecule `O=C(c1csc(C2CCN(S(=O)(=O)CCc3ccncc3)CC2)n1)N(C1CCCCC1)C1CC1` [Compound 4.18, 2-[1-(2-Pyridin-4-yl-ethanesulfonyl)-piperidin-4-yl]-thiazole-4-carboxylic acid cyclohexyl-cyclopropyl-amide], the remaining activity at 1 µM at mouse 11-β-HSD-1 was determined as 49%. Moreover, the IC50 at human 11-β-HSD-1 came out at 1000 nM.
Take `COc1ccc(S(=O)(=O)N2CCC(c3nc(C(=O)N(C4CCCCC4)C4CC4)cs3)CC2)cc1` [Compound 4.20, 2-[1-(4-Methoxy-benzenesulfonyl)-piperidin-4-yl]-thiazole-4-carboxylic acid cyclohexyl-cyclopropyl-amide]: the IC50 on mouse 11-β-HSD-1 is 1000 nM; at human 11-β-HSD-1, 280 nM.
As to `CC1(C)[C@@H](OC(=O)CCC(=O)O)CC[C@]2(C)[C@H]3C(=O)C=C4[C@@H]5C[C@@](C)(C(=O)O)CC[C@]5(C)CC[C@@]4(C)[C@]3(C)CC[C@@H]12` [carbenoxolone], the hepatic insulin sensitivity entry with humans is given as “improved hepatic insulin sensitivity”. Also, the “reduction of the intraocular pressure” value with normal patients is 20%.

As usually defined, the IC50 is the concentration at which inhibition is half-maximal.

(Values after patent US8546575B2, “NIP thiazole derivatives as inhibitors of 11-beta-hydroxysteroid dehydroge-nase-1” (Merck Patent GmbH, priority 2008, dated 2013).)
